Molecules are shown by their SMILES.

The values that follow come from patent publication US11655235B2, “Pyrrolidine and piperidine compounds” (YUHAN CORPORATION, priority 2019, dated 2023).

For one assay, the target named is T1, Recombinant human FAP (Homo sapiens, UniProt Q12884).
T1 construct: purchased R&D systems
T1 sequence (Q12884 1-760): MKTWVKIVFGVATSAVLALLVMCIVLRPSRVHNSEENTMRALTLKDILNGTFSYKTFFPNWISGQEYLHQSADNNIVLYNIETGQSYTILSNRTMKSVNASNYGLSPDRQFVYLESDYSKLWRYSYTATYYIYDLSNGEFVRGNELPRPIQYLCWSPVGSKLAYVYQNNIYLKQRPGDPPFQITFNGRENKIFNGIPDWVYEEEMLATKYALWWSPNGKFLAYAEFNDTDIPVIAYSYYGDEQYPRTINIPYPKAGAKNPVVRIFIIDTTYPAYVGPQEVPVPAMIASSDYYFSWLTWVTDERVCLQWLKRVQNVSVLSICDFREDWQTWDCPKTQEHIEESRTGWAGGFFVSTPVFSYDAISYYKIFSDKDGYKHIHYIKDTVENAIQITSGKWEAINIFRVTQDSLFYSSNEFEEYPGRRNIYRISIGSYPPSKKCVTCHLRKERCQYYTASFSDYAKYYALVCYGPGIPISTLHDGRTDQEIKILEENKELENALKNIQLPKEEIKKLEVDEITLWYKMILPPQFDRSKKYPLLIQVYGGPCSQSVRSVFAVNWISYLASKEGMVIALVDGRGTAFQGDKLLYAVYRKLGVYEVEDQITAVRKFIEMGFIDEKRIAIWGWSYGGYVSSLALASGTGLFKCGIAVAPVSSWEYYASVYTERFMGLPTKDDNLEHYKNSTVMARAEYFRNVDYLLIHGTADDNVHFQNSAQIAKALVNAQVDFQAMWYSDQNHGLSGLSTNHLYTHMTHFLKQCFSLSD
Kind of assay: FAP inhibition, fluorogenic substrate Z-Gly-Pro-AMC. It counts as biochemical. The method, then:
The compounds according to the present technology were evaluated in terms of the inhibitory effect on the activity of dipeptidyl peptidases including FAP by using a substrate producing fluorescent substances upon enzymatic decomposition. The test was conducted at 25° C. to get a final reaction volume of 100 μL in a 96 black well plate. […] Briefly, the test compounds were dissolved in dimethyl sulfoxide (DMSO) at a concentration of 20 mM and then subjected to serial dilution, thereby creating an 8 point curve. As for the control group, a 6 point curve created by serial dilution of Talabostat in the same buffer solution was used. Fluorescence intensity was measured using a microplate reader (Flexstation3, Molecular Devices) under the wavelength condition exciting at 380 nm and reading the emission at 460 nm. The inhibitory effect of the test compounds was measured as a decrease (%) in the signal rate as compared to the control group without any inhibitor. Data was fixed to a logistic model with four variables and IC50 value was calculated using GraphPad Prism program. Recombinant human FAP (R&D systems) was diluted with 50 mM tris (pH 7.5) buffer comprising 1 M of sodium chloride and 1 mg/ml of bovine serum albumin (BSA) to be 10 ng per final reaction. The test compounds were subjected to serial dilution in a buffer under the condition containing up to 0.1% of DMSO. Z-Gly-Pro-AMC (Bachem) was used as a substrate. By dissolving in DMSO and then diluting in the same buffer, the substrate was added to be […] per final reaction.

In another assay the target is DPP4 (Homo sapiens, UniProt P27487). Briefly: DPP4 inhibition, fluorogenic substrate H-Gly-Pro-AMC. It counts as biochemical. The arrangement: purchased R&D Systems. The note with it: for inhibition at 1 µM: read-out: hDPP4 inhibition % at 1 μM. The procedure: The compounds according to the present technology were evaluated in terms of the inhibitory effect on the activity of dipeptidyl peptidases including FAP by using a substrate producing fluorescent substances upon enzymatic decomposition. The test was conducted at 25° C. to get a final reaction volume of 100 μL in a 96 black well plate. […] Briefly, the test compounds were dissolved in dimethyl sulfoxide (DMSO) at a concentration of 20 mM and then subjected to serial dilution, thereby creating an 8 point curve. As for the control group, a 6 point curve created by serial dilution of Talabostat in the same buffer solution was used. Fluorescence intensity was measured using a microplate reader (Flexstation3, Molecular Devices) under the wavelength condition exciting at 380 nm and reading the emission at 460 nm. The inhibitory effect of the test compounds was measured as a decrease (%) in the signal rate as compared to the control group without any inhibitor. Data was fixed to a logistic model with four variables and IC50 value was calculated using GraphPad Prism program. As for recombinant human DPP4 (R&D Systems), 25 mM tris (pH 8.0) buffer as a buffer solution and H-Gly-Pro-AMC (Bachem) as a substrate were used. As for recombinant human DPP7 (R&D Systems), 25 mM MES (pH 6.0) buffer as a buffer solution and Lys-Pro-AMC (Bachem) as a substrate were used. As for recombinant human DPP8 (PBS Bioscience), as a buffer solution, a 10 mM tris (pH 7.4) buffer comprising 10 mM of magnesium chloride and 0.05% of Tween 20, and Z-Ala-Pro-AMC (BPS Bioscience) as a substrate were used. As for recombinant human DPP9 (R&D Systems), a 25 mM tris (pH 8.0) buffer as a buffer solution and H-Gly-Pro-AMC (Bachem) as a substrate were used. As for recombinant human PREP (R&D System), as a buffer solution, a 25 mM tris (pH 7.5) buffer comprising 250 mM sodium chloride and 2.5 mM DTT (Dithiolthreitol), and Z-Gly-Pro-AMC (Bachem) as a substrate were used. The evaluation was made by using 10 ng of DPP4, PDD7, and PREP, 20 ng of DPP8, and 50 ng of DPP9 based on the final reaction. In the evaluation of DPP4, the test compounds were subjected to serial dilution in a buffer under the condition containing up to 0.1% of DMSO. In the evaluation of DPP7, DPP8, DPP9, and PREP, the test compounds were subjected to serial dilution in each buffer under the condition containing up to 0.5% of DMSO.
Sequence of DPP4 (P27487 whole entry): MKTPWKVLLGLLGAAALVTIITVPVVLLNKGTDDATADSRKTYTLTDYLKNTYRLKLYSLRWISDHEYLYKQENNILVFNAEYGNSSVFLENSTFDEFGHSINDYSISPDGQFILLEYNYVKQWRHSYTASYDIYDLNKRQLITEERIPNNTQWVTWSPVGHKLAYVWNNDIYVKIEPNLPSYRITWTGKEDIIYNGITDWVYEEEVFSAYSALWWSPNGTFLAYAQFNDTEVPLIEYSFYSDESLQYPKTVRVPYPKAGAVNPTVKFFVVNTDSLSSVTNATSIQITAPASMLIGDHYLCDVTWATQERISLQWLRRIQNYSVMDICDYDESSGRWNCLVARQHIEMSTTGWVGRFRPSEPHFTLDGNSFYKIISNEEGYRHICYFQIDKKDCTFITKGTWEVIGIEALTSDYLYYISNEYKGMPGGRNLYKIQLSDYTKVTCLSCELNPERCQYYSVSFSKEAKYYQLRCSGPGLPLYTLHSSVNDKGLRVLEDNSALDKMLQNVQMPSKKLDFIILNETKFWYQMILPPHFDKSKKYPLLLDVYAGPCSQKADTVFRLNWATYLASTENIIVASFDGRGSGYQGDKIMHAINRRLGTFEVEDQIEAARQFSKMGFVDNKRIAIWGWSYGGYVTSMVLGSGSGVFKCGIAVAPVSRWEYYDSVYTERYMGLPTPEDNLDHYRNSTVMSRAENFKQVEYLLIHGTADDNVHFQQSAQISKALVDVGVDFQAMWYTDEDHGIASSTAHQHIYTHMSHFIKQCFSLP

Where [1] appears, read: 25° C., Z-Gly-Pro-AMC substrate.
Setting [2] is: recombinant human FAP, substrate Z-Gly-Pro-AMC.

Usually IC50 stands for the concentration that inhibits the measured activity by half. The inhibition is the change of the read-out against control, counted positive when it falls. Consider `N#C[C@@H]1CCCN1C(=O)CN1CC[C@@H](C(=O)Nc2cnc3ccccc3c2)C1` [Example 1, (R)-1-(2-((S)-2-cyanopyrrolidin-1-yl)-2-oxoethyl)-N-(quinolin-3-yl)pyrrolidine-3-carboxamide], for which the IC50 on Recombinant human FAP (setting [1]) came to 163 nM. The inhibition at 1 µM at DPP4 worked out at 4.4%.
In the same order, the values of `N#C[C@@H]1CCCN1C(=O)CN1CC[C@@H](C(=O)Nc2ccnc3ccccc23)C1` [Example 2, (R)-1-(2-((S)-2-cyanopyrrolidin-1-yl)-2-oxoethyl)-N-(quinolin-4-yl)pyrrolidine-3-carboxamide] are 84.5 nM and 14.6%.
With `N#C[C@@H]1CCCN1C(=O)CN1CC[C@H](C(=O)Nc2cnc3ccccc3c2)C1` [Example 3, (S)-1-(2-((S)-2-cyanopyrrolidin-1-yl)-2-oxoethyl)-N-(quinolin-3-yl)pyrrolidine-3-carboxamide], the IC50 on Recombinant human FAP (setting [1]) was determined as 175 nM. Further, the inhibition at 1 µM at DPP4 came to 4.2%.
For `N#C[C@@H]1CCCN1C(=O)CN1CC[C@H](C(=O)Nc2ccnc3ccccc23)C1` [Example 4, (S)-1-(2-((S)-2-cyanopyrrolidin-1-yl)-2-oxoethyl)-N-(quinolin-4-yl)pyrrolidine-3-carboxamide] the same measures were 99.2 nM and 15.1%.
For the molecule `N#C[C@@H]1CCCN1C(=O)CN1CC[C@@H](Nc2cccc(-c3ccccc3)c2)C1` [Example 18, (S)-1-(2-((R)-3-([1,1′-biphenyl]-3-ylamino)pyrrolidin-1-yl)acetyl)pyrrolidine-2-carbonitrile], the 50% inhibitory concentration (IC50) on Recombinant human FAP (setting [1]) was determined as 25.3 nM. Moreover, the “hDPP4 inhibition % at 1 μM” value at DPP4 is on record as “No inhibition**”.
Consider `N#C[C@@H]1CCCN1C(=O)CN1CC[C@H](Nc2cccc3ccsc23)C1` [Example 21, (S)-1-(2-((S)-3-(benzo[b]thiophen-7-ylamino)pyrrolidin-1-yl)acetyl)pyrrolidine-2-carbonitrile], for which the IC50 on Recombinant human FAP (setting [1]) is 34.1 nM. Also, the inhibition at 1 µM on DPP4 was determined as 3.6%.
As for `N#C[C@@H]1CCCN1C(=O)CN1CC[C@H](Nc2cccc3ccoc23)C1` [Example 22, (S)-1-(2-((S)-3-(benzofuran-7-ylamino)pyrrolidin-1-yl)acetyl)pyrrolidine-2-carbonitrile], at Recombinant human FAP (setting [1]), the half-maximal inhibitory concentration (IC50) was found to be 9.03 nM. Further, on DPP4, the inhibition at 1 µM was found to be 4.2%.
Take `N#C[C@@H]1CCCN1C(=O)CN1CC[C@@H](Nc2cccc3ccsc23)C1` [Example 25, (S)-1-(2-((R)-3-(benzo[b]thiophen-7-ylamino)pyrrolidin-1-yl)acetyl)pyrrolidine-2-carbonitrile]: the IC50 on Recombinant human FAP (setting [1]) was 57.6 nM. Moreover, the inhibition at 1 µM at DPP4 was 2.9%.
For the molecule `N#C[C@@H]1C[C@@H]2C[C@@H]2N1C(=O)CN1CC[C@H](Nc2cncc3ccoc23)C1` [Example 26, (1S,3S,5S)-2-(2-((S)-3-(furo[3,2-c]pyridin-7-ylamino)pyrrolidin-1-yl)acetyl)-2-azabicyclo[3.1.0]hexane-3-carbonitrile], the figures for the inhibition at 1 µM on Recombinant human FAP (read-out: hFAP inhibition % at 1 μM) and at DPP4 were 93.7% and 0.4%, respectively.
In the case of `N#C[C@@H]1CCCN1C(=O)CN1CC[C@H](NC(=O)c2ccnc3ccccc23)C1` [Example 30, N—((S)-1-(2-((S)-2-cyanopyrrolidin-1-yl)-2-oxoethyl)pyrrolidin-3-yl)quinoline-4-carboxamide], the IC50 on Recombinant human FAP (setting [1]) stood at 145 nM. Moreover, the “hDPP4 inhibition % at 1 μM” value on DPP4 is listed as “No inhibition**”.
Regarding `N#C[C@@H]1CCCN1C(=O)CN1CC[C@H](NC(=O)c2cnc3ccccc3c2)C1` [Example 31, N—((S)-1-(2-((S)-2-cyanopyrrolidin-1-yl)-2-oxoethyl)pyrrolidin-3-yl)quinoline-3-carboxamide], on Recombinant human FAP (setting [1]), the IC50 was determined as 164 nM. At DPP4, the inhibition at 1 µM is 5.4%.
In the same order, the values of `N#C[C@@H]1CCCN1C(=O)CN1CC[C@H](NC(=O)c2cccc3ncccc23)C1` [Example 32, N—((S)-1-(2-((S)-2-cyanopyrrolidin-1-yl)-2-oxoethyl)pyrrolidin-3-yl)quinoline-5-carboxamide] are 70.4 nM and 2%.
In the case of `CN(c1ccc2ccccc2n1)[C@@H]1CCN(CC(=O)N2CCC[C@H]2C#N)C1` [Example 137, (2S)-1-[2-[(3R)-3-[methyl(2-quinolyl)amino]pyrrolidin-1-yl]acetyl]pyrrolidine-2-carbonitrile], the half-maximal inhibitory concentration (IC50) on Recombinant human FAP (setting [1]) was 86.1 nM.
Same read-out and setting: with `CN(c1ccc2cccnc2c1)[C@@H]1CCN(CC(=O)N2CCC[C@H]2C#N)C1` [Example 141, (2S)-1-[2-[(3R)-3-[methyl(7-quinolyl)amino]pyrrolidin-1-yl]acetyl]pyrrolidine-2-carbonitrile] the figure was 34.1 nM; with `CN(c1ccnc2ccccc12)[C@H]1CCN(CC(=O)N2CCC[C@H]2C#N)C1` [Example 143, (2S)-1-[2-[(3S)-3-[methyl(4-quinolyl)amino]pyrrolidin-1-yl]acetyl]pyrrolidine-2-carbonitrile], 55.4 nM.
For the molecule `CN(c1cncc2ccccc12)[C@H]1CCN(CC(=O)N2CCC[C@H]2C#N)C1` [Example 147, (2S)-1-[2-[(3S)-3-[4-isoquinolyl(methyl)amino]pyrrolidin-1-yl]acetyl]pyrrolidine-2-carbonitrile], at Recombinant human FAP (setting [1]), the IC50 turned out to be 14.7 nM.
Turning to `N#C[C@@H]1CCCN1C(=O)CN1CC[C@@H](Nc2ccc3cccnc3c2)C1` [Example 163, (2S)-1-[2-[(3R)-3-(7-quinolylamino)pyrrolidin-1-yl]acetyl]pyrrolidine-2-carbonitrile], on Recombinant human FAP (setting [2]), the IC50 turned out to be 29 nM.
Consider `N#C[C@@H]1CCCN1C(=O)CN1CC[C@@H](Nc2cccc3cccnc23)C1` [Example 164, (2S)-1-[2-[(3R)-3-(8-quinolylamino)pyrrolidin-1-yl]acetyl]pyrrolidine-2-carbonitrile], for which the IC50 on Recombinant human FAP (setting [2]) is 56.8 nM.
`N#C[C@@H]1C[C@H](F)CN1C(=O)CN1CC[C@@H](Nc2ccc3cccnc3c2)C1` [Example 168, (2S,4S)-4-fluoro-1-[2-[(3R)-3-(7-quinolylamino)pyrrolidin-1-yl]acetyl]pyrrolidine-2-carbonitrile]: the IC50 at Recombinant human FAP (setting [2]) was 11.5 nM.
Same read-out and setting: with `N#C[C@@H]1C[C@H](F)CN1C(=O)CN1CC[C@@H](Nc2cccc3cccnc23)C1` [Example 169, (2S,4S)-4-fluoro-1-[2-[(3R)-3-(8-quinolylamino)pyrrolidin-1-yl]acetyl]pyrrolidine-2-carbonitrile] the figure was 35.4 nM.
